The test system of assay [1] is neuroleptically treated rats. In words: ovulation after subcutaneous LH-RH in neuroleptically treated rats. The format is in vivo, rat. As to the method:
I. -- Formulations containing the polypeptide, gonadorelin also known as luteinizing hormone-releasing hormone (LH-RH) were evaluated for potency.
Prepared by hydrating each gum separately at 80° C. for 30 minutes and treated with a cell disrupter for 2 minutes. The gum solutions were mixed in the presence of hydrochloric acid by adjusting the pH to 3. Chlorobutanol was then dissolved in the mixed gum solution and filtered. LH-RH was then dissolved in the gum solution over a dose range of 0 to 500 nanograms.
The test solutions were administered subcutaneously to neuroleptically treated rats.

Assay [2] is described as follows: intranasal evaluation of LH-RH gum formulations. To be noted: 2% LH-RH, […] locust bean gum, […] xanthan gum, 0.5-1% phenylethyl alcohol. The format is in vivo. As to the method:
II. -- Formulations containing 2% LH-RH, 0.25% locust bean gum, 0.25% xanthan gum, and 0.5-1% phenylethyl alcohol were also prepared and evaluated intranasally.

Another assay relates to Rabbits' eyes. In words: average miotic response intensity (pilocarpine hydrochloride formulations). The format is in vivo, rabbit. The protocol: rabbit's eyes were treated with 2 drops of the test solution, and pupillary diameters were measued with a cathetometer. The miotic response intensity was computed by taking the difference in pupillary diameters at zero time and time "T" (i.e., hours after instillation) and dividing it by the pupillary diameter at zero time. The table below illustrates the average miotic response for all eyes as a function of hours after instillation.
Formulations containing pilocarpine hydrochloride were prepared as in Example 2 and are illustrated as follows: […]

Where a name gives a salt, the structure may show the parent alone.

For `CC(C)C[C@H](NC(=O)CNC(=O)[C@H](Cc1ccc(O)cc1)NC(=O)[C@H](CO)NC(=O)[C@H](Cc1c[nH]c2ccccc12)NC(=O)[C@H](Cc1cnc[nH]1)NC(=O)[C@@H]1CCC(=O)N1)C(=O)N[C@@H](CCCNC(=N)N)C(=O)N1CCC[C@H]1C(=O)NCC(N)=O` [LH-RH], the “Number of Ova Found” value turned out to be 0 in assay [1] (31 NG s.c., Control (No Gums)); 0 in assay [1] (31 NG s.c., with 0.5% Gums); 7 in assay [1] (62 NG s.c., Control (No Gums)); 8.7 ± 1.4 in assay [1] (62 NG s.c., with 0.5% Gums); 8 ± 1.2 in assay [1] (125 NG s.c., Control (No Gums)); 10.6 ± 0.6 in assay [1] (125 NG s.c., with 0.5% Gums). The “Number of Ova Found” value in assay [1] (250 NG s.c., Control (No Gums)) is 10.1 ± 0.5; in assay [1] (250 NG s.c., with 0.5% Gums), 11.2 ± 0.7; in assay [1] (500 NG s.c., Control (No Gums)), 10.5 ± 0.6; in assay [1] (500 NG s.c., with 0.5% Gums), 11.5 ± 0.5. Further, the “Number of Rats Ovulating” value is reported as 0/10 in assay [1] (31 NG s.c., Control (No Gums)); 0/10 in assay [1] (31 NG s.c., with 0.5% Gums); 2/10 in assay [1] (62 NG s.c., Control (No Gums)); 3/10 in assay [1] (62 NG s.c., with 0.5% Gums); 5/10 in assay [1] (125 NG s.c., Control (No Gums)); 7/10 in assay [1] (125 NG s.c., with 0.5% Gums). Moreover, the “Number of Rats Ovulating” value in assay [1] (250 NG s.c., Control (No Gums)) was 8/10; in assay [1] (250 NG s.c., with 0.5% Gums) it was 9/10; in assay [1] (500 NG s.c., Control (No Gums)) it was 10/10; in assay [1] (500 NG s.c., with 0.5% Gums), 10/10. Besides, the “LH release and induction of ovulation” value in assay [1] (s.c., fluphenazine dihydrochloride pre-treated proestrous rats) is “released LH and subsequently induced ovulation”. In addition, in assay [2], the “LH-RH release after intranasal administration” value was “stimulates LH-RH release at a level greater than formulations without the mixed gums”.
Turning to `CC[C@@H]1C(=O)OC[C@@H]1Cc1cncn1C` [pilocarpine hydrochloride], the “potentiation of miotic response by gums” value in the assay with Rabbits' eyes (combined locust bean and xanthan gums) is recorded as “potentiate the miotic response”.
As for `CC[C@@H]1C(=O)OC[C@@H]1Cc1cncn1C` [pilocarpine], the “possible reduction of dose with gums” value with Rabbits' eyes (combined use of locust bean and xanthan gums) is on record as “up to one fifth”.
